Measurements reported in patent US8541649B2, “Brassinosteroid regulated kinases (BRKs) that mediate brassinosteroid signal transduction and uses thereof” (priority 2008, dated 2013).

Columns and labels:
[1] = system: wild type plants; experiment: Hypocotyl and root growth assay; type: in vivo, Arabidopsis thaliana; settings: wild type plants grown in the light
Protocol: The det2-1 and bzr1-1D mutants are in Arabidopsis thaliana Columbia ecotype background, and bri1-5 is in the WS ecotype. For hypocotyl and root growth assay, seedlings were grown on vertical phytoagar plate containing ^1/2 MS medium and 1% sucrose (pH 5.7) in the dark for 4 days or under continuous light for 7 days. Confocal microscopy and BiFC analysis were performed according to Gampala et al. (Gampala et al., Dev Cell 13, 177 (August, 2007)).
Arabidopsis seeds were surface sterilized by first soaking in 70% ethanol plus 0.1% Triton X-100 for 15 min followed by soaking in 96% ethanol for another 10 mins. Sterilized seeds were air dried in the hood and sowed on agar plate of Murashige and Skoog (MS) medium or MS plate plus BRZ or Brassinolide. The seeds were incubated at 4° C. for 3 days to synchronize germination and then grown for 4 days in dark or 7 days under continuous light before taking pictures for measurement. For measurement of hypocotyls or root growth, the plates were first scanned using a image scanner at a resolution of 300 dpi, and the images were input into computer software Image J to measure the root or hypocotyl length.

[2] = target: T1, BRI1-GFP and BRK1-myc (Arabidopsis thaliana, UniProt O22476); experiment: Co-immunoprecipitation of BRI1 with BRK1; type: in vivo; settings: 100 nM brassinolide for 30 min; microsomal proteins immunoprecipitated with anti-GFP antibodies; plants co-expressing BRK1-myc and BRI1-GFP (FIG. 2D)
T1 construct: expressed in transfected cells; host or cells: transgenic Arabidopsis plants (rosette leaves, microsomal fraction)
T1 sequence (O22476 24-1196): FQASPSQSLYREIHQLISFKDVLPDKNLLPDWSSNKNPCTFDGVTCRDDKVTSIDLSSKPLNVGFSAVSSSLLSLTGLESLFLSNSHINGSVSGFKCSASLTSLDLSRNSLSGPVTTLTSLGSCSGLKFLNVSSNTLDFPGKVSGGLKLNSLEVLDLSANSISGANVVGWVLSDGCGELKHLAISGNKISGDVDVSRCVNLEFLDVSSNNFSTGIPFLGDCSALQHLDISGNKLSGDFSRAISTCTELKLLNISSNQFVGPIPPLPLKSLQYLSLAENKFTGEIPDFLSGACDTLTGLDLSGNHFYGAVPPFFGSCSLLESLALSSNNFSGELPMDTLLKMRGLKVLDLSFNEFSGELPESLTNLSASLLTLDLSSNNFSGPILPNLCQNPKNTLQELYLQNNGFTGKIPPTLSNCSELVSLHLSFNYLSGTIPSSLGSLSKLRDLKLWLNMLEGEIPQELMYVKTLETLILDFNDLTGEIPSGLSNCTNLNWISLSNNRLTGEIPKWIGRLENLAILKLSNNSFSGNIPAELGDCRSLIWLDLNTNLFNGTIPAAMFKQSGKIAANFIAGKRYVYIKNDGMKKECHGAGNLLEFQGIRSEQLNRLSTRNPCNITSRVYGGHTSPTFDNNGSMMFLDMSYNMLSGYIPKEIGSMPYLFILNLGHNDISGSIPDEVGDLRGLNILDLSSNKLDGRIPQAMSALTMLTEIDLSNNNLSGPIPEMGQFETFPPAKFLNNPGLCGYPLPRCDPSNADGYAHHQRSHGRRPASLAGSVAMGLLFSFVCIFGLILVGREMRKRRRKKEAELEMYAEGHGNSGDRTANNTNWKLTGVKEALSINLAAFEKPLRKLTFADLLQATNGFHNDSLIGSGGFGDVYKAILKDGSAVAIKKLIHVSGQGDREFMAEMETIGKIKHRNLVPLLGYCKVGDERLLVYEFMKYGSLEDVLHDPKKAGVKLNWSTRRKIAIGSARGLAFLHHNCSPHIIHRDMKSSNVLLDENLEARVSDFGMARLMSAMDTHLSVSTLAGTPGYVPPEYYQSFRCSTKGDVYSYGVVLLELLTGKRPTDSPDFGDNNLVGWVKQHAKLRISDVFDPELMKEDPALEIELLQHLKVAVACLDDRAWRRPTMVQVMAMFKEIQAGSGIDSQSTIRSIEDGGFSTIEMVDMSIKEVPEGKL
T1 sequence (Q94F62 26-615 partner): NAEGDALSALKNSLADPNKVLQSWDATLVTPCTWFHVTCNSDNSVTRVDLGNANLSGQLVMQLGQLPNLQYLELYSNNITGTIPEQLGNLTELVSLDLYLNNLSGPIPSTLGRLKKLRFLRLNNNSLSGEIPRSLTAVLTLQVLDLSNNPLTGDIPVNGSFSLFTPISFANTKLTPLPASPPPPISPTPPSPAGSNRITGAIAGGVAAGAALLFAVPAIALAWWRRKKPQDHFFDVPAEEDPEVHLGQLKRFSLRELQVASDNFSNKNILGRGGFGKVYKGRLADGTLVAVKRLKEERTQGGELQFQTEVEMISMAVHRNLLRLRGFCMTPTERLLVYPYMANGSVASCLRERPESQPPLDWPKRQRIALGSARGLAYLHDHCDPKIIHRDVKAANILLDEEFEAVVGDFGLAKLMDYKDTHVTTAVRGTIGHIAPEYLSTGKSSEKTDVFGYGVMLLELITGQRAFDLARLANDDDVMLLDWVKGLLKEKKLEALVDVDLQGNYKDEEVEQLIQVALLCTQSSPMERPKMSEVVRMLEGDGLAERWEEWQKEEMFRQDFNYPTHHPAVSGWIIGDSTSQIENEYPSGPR
Protocol: FIGS. 2A-2D show BRK1 is a substrate of BRI1. FIGS. 2A and 2B show BRI1 phosphorylates serine230 of BRK1 in vitro. […] YFP fluorescence images of N. benthamiana leaf epidermal cells co-transformed with the indicated constructs. […] Arabidopsis plants expressing BRK1-myc only (lanes 1 and 4) or co-expressing BRK1-myc and BRI1-GFP (lanes 2, 3, 5, 6) were treated with 100 nM brassinolide (BL+) or mock solution (BL−) for 30 min. Microsomal proteins (lanes 1 to 3) were immunprecipitated with anti-GFP antibodies (lanes 4 to 6), and the immunoblot was probed using anti-GFP antibodies or anti-myc antibodies.
All procedures were performed at 4° C. Rosette leaves of 3-week-old Arabidopsis plants were homogenized with mortar and pestle in the grinding buffer (20 mM HEPES, pH 7.5, 40 mM KCl, 250 mM sucrose, 5 mM MgCl2 and protein inhibitors) at a ratio of 3 mL buffer per gram of tissue. Homogenate was filtered through 2 layers of Miracloth (CalBiochem, La Jolla, Calif.), and centrifuged at 10,000 g for 10 minutes. The supernatant was further centrifuged at 100,000 g for 60 min to pellet the microsomal fraction. Microsomes were re-suspended in 0.5 mL grinding buffer and sonicated for 10 sec. Triton X-100 was added to a final concentration of 1%. After mixing, the extracts were centrifuged at 20,000 g for 10 min. […] Samples were analyzed by SDS-PAGE and immunoblotting.

**Q.** Which results are given for `CC(C)[C@H](C)[C@@H](O)[C@H](O)[C@@H](C)[C@H]1CC[C@H]2[C@@H]3COC(=O)[C@H]4C[C@H](O)[C@H](O)C[C@]4(C)[C@H]3CC[C@]12C` [Brassinolide]?
**A.** hypocotyl elongation [1]: increases hypocotyl elongation; root growth [1]: inhibits root growth; amount of the co-immunoprecipitated BRK1-myc [2]: 46 % of the untreated sample
